In publication PMC9145754, “Novel Soloxolone Amides as Potent Anti-Glioblastoma Candidates: Design, Synthesis, In Silico Analysis and Biological Activities In Vitro and In Vivo” (Pharmaceuticals, 2022):

Legend:
[1] = Brain accumulation of 12 by HPLC–MS/MS; format: in vivo, Balb/C nude mice; details: seven injections
Procedure: (seven injections were performed in total) and brain tissue was collected 48 h after the last injection of 12 followed by a high-performance liquid chromatography–tandem mass spectrometry (HPLC–MS/MS) analysis of the obtained samples (Figure 3D). This treatment regimen was chosen due to its common usage in the evaluation of antitumor activity of various low-molecular weight compounds in xenograft murine models. […] Before the HPLC–MS/MS analysis, chromatographic conditions and mass spectrometer parameters for detecting both semisynthetic triterpenoid 12 and the internal standard in the multiple reaction monitoring (MRM) mode were optimized. […]
To estimate the content of 12 in mouse brain tissue, a set of calibrators was prepared followed by their preparation protocol. The obtained samples were analyzed using the developed HPLC–MS/MS method and a calibration curve was built over the range of concentrations of 10–1000 ng/g. […] The validation of the method for quantification of 12 in mouse brain tissue and investigation of its pharmacokinetics will be the objectives of our next study. […]
To prepare calibrators, mouse brain tissue samples taken from three healthy untreated animals were pooled and homogenized as described above. […] The obtained supernatants were transferred into vial inserts and analyzed. To quantify 12 in experimental animal brain tissue, a sample weighing c.a. […]

[2] = test system: U87 cells; assay: Cytotoxicity of 12 with N-acetyl-L-cysteine (MTT); format: cell-based; details: U87, 12 at 4 µM with NAC, 24 h
Procedure: To check the ability of 12 to influence ROS production, U87 cells treated with 12 (4 µM) for 24 h were stained with dichlorodihydrofluorescein diacetate (DCFDA) and analyzed by flow cytometry. […] Since ROS play an important role in the regulation of cell death, we further examined whether ROS production mediated the cytotoxicity of 12 with respect to glioblastoma cells.
In order to understand whether ROS play a crucial role in compound 12-induced cell death, U87 cells were plated in quadruplicate in 96-well plates at a density of 1 × 10^4 cells/well and incubated in the presence of 12 at 4 µM and N-Acetyl-L-cysteine (NAC) at […] for 24 h under standard conditions. Then, cell viability was measured using an MTT test.

CC1(C)C(=O)C(C#N)=C[C@]2(C)C3=CC(=O)[C@@H]4[C@@H]5C[C@@](C)(C(=O)NCCc6c[nH]c7ccccc67)CC[C@]5(C)CC[C@@]4(C)[C@]3(C)CC[C@@H]12 [compound 12]
concentration of 12 in brain tissue of tumor-bearing mice ([1]; U87 tumor-bearing nude mice, 20 mg/kg i.p.): 118 ng/g
concentration of 12 in brain tissue ([1]; nude mice, 50 mg/kg i.p., thrice a week, 48 h after last injection): 490 ng/g
effect of NAC on cytotoxic effect of 12 [2]: complete abrogation of the cytotoxic effect
